The values that follow come from ChEMBL document CHEMBL4665912, “Novel Compounds as STING Modulators for Treating Hepatitis B Virus Infections” (ACS Med Chem Lett, 2020).

Assay [1] addresses T1, Stimulator of interferon genes protein (Homo sapiens, UniProt Q86WV6). In words: Agonist activity at STING in human PBMC cells assessed as increase in […] by electrochemiluminescence assay. The assay is classed as cell-based.
Assay [2] concerns the target T1, Stimulator of interferon genes protein. In words: Competitive binding affinity to human recombinant C-terminal Avi-tag STING using Alexa 488 probe incubated for 15 mins by FRET based assay.

The structures appear in SMILES notation. Bounds are passed on as bounds.

T1 sequence (Q86WV6 whole entry): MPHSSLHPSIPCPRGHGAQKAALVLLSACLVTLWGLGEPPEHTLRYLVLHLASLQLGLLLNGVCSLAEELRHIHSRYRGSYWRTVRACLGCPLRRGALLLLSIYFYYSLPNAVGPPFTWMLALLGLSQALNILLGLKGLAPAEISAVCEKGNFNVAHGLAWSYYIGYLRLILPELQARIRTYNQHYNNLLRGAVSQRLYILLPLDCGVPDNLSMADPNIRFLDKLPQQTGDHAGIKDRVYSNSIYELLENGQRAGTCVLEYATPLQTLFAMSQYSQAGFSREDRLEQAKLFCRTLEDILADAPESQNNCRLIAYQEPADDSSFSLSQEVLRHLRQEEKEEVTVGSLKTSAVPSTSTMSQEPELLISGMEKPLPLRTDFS

`CCn1nc(C)cc1C(=O)/N=c1\n(C)c2ccccc2n1C/C=C/Cn1/c(=N/C(=O)c2cc(C)nn2CC)n(C)c2cccc(CN3CCCCC3)c21`: the concentration giving a half-maximal response (EC50) in assay [1] is less than 1 nM. For the same compound, the IC50 in assay [2] was less than 1 nM.
As for `CCn1nc(C)cc1C(=O)/N=c1\n(C)c2ccccc2n1C/C=C/Cn1/c(=N/C(=O)c2cc(C)nn2CC)n(C)c2c(CO)cccc21`, in assay [1], the EC50 was less than 1 nM. In assay [2], the IC50 was less than 1 nM.
For the compound `CCn1nc(C)cc1C(=O)/N=c1\n(C)c2cccc(OC)c2n1C/C=C/Cn1/c(=N/C(=O)c2cc(C)nn2CC)n(C)c2cccc(OCCCO)c21`, the half-maximal effective concentration (EC50) in assay [1] is less than 1 nM. For the same compound, in assay [2], the IC50 was less than 1 nM.
For `CCn1nc(C)cc1C(=O)/N=c1\n(C)c2ccccc2n1C/C=C/Cn1/c(=N/C(=O)c2cc(C)nn2CC)n(C)c2cccc(C(O)CO)c21` (configuration not stated), the concentration for a half-maximal effect (EC50) in assay [1] is 1 nM. In addition, the IC50 in assay [2] is less than 1 nM.
Consider `CCn1nc(C)cc1C(=O)/N=c1\n(C)c2ccccc2n1C/C=C/Cn1/c(=N/C(=O)c2cc(C)nn2CC)n(C)c2cccc(CN3CCOCC3)c21`, for which, in assay [1], the EC50 was less than 1 nM. In addition, in assay [2], the IC50 was less than 1 nM.
Turning to `CCn1nc(C)cc1C(=O)/N=c1\n(C)c2ccccc2n1C/C=C/Cn1/c(=N/C(=O)c2cc(C)nn2CC)n(C)c2cccc(CN3CCCCCC3)c21`, the EC50 in assay [1] is less than 1 nM. Further, in assay [2], the half-inhibitory concentration (IC50) is less than 1 nM.
